Tests used:
[1] = biological target: T1, 5HT2c (Rattus norvegicus, UniProt P08909); assay: Ca2+ mobilization by FACS (Indo-1) in NIH3T3-POP cells expressing 5HT2c; type: cell-based; conditions: Mesulergine (10 μM) pretreated division arrested cells, 10 μM 5HT
T1 sequence (P08909 33-460): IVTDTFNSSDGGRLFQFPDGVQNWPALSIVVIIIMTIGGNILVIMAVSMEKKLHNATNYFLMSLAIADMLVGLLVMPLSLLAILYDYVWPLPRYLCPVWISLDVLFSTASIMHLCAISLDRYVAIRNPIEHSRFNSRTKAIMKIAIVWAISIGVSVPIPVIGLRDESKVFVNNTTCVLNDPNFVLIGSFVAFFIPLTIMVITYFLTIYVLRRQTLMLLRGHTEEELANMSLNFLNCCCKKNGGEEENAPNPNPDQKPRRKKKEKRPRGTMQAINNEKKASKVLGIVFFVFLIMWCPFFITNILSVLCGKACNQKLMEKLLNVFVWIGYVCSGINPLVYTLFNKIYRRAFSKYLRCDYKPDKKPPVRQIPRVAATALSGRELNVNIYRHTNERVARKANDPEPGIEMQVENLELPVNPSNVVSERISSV
Text: (§1) In order to measure and to analyze Ca^2+ mobilization, a commercially available cell sorter was used. Excitation was set at 360 nm, and emissions were set at both 400 (+/−15 nm) and 500 (+/−20)nm. The emissions were monitored simultaneously, and the emission ratio at 400 nm/500 nm was used to report the intracellular rise of Ca^2+ concentration. Untreated cells were used to set a baseline ratio.

[2] = system: parental NIH3T3 cells; assay: Ca2+ mobilization control in untransfected parental NIH3T3 cells; type: cell-based; conditions: parental NIH3T3 cells not transfected; data not shown
Text: as §1

cells responding to serotonin in Ca++ mobilization [1] [%] | Structure (SMILES) | fluorescence change when treated with serotonin [2]
0.1 | CN1C[C@@H](NS(=O)(=O)N(C)C)C[C@@H]2c3cccc4c3c(cn4C)C[C@H]21 [Mesulergine] | –
– | NCCc1c[nH]c2ccc(O)cc12 [serotonin] | no fluorescence change

From patent publication US20120276545A1, “METHOD FOR USING DIVISION ARRESTED CELLS IN SCREENING ASSAYS” (LIFE TECHNOLOGIES CORPORATION, priority 2002, published 2012)
